System: turkey poults of stock BUT 9
Assay: Free-choice feed consumption test in 6 day turkey poults
Assay type: in vivo
Details: per cage of 5 turkey poults
From the text: Test item no. 2 therefore comprises 0.05% of olfactory additive for 99.95% of methionine hydroxyl-analog. The test items are incorporated into a mixture of maize and soya, which is used as basic feed. The experimental plan is the following: [table] 150 turkey poults of stock BUT 9 are selected and placed in cages fitted out with a water bowl and two feeders with a capacity of about 0.3 kg. 5 turkey poults are placed per cage. The animals receive during the pre-experimental period (i.e. from D0to D6, 8.00am), an identical standard starting feed. During the experimental phase (i.e. D6 from 8am to 5pm), the animals are separated into three groups 10 A, B and C. For each group and each cage of this group, the animals have the choice between two test items. For example the animals of group A may choose between test item no. 3 and test item no. 1. Feeding is ad libitum with checking of consumption at […]. Furthermore, at each measuring time, the two feeders are interchanged in order to prevent the animals from being accustomed to the positioning of the feeders. […] The illustrated consumption is the consumption per cage, i.e. for 5 turkey poults. This consumption satisfies the following formula: (weight of the feeder at the end of the period)-(weight of the feeder at the beginning of the period). Averages are performed for each group over 12 cages.

In the case of CSCC[C@H](N)C(=O)O [Test item no. 3, methionine], the “Consumption, Average” value (T0 + 1 h, group A: choice test item no. 3 (0.2%) vs no. 1 (0.23%)) was 6.8 g, the “Consumption, Average” value (T0 + 1 h, group B: choice test item no. 3 (0.2%) vs no. 2 (0.23%), no. 2 = hydroxy analog + 0.5 g/kg olf. additive) was 9.1 g and the “Consumption, Average” value (T0 + 3 h, group A: choice test item no. 3 (0.2%) vs no. 1 (0.23%)) was 15.5 g. The “Consumption, Average” value (T0 + 3 h, group B: choice test item no. 3 (0.2%) vs no. 2 (0.23%)) was 14.9 g, the “Consumption, Average” value (T0 + 5 h, group A: choice test item no. 3 (0.2%) vs no. 1 (0.23%)) was 23.3 g and the “Consumption, Average” value (T0 + 5 h, group B: choice test item no. 3 (0.2%) vs no. 2 (0.23%)) was 22.6 g. The “Consumption, Average” value (T0 + 7 h, group A: choice test item no. 3 (0.2%) vs no. 1 (0.23%)) was 30.3 g, the “Consumption, Average” value (T0 + 7 h, group B: choice test item no. 3 (0.2%) vs no. 2 (0.23%)) was 30.0 g and the “Consumption, Average” value (T0 + 9 h, group A: choice test item no. 3 (0.2%) vs no. 1 (0.23%)) was 37.7 g. The “Consumption, Average” value (T0 + 9 h, group B: choice test item no. 3 (0.2%) vs no. 2 (0.23%)) was 36.8a g.

From patent publication US20070166356A1, “Food supplement for animals, comprising an olfactory additive” (ADISSEO IRELAND LIMITED, priority 2004, published 2007)
